# Legend:
# [1] = test system: SARS-CoV-2 clinical isolate (2019-nCoV/USA-WA1/2020); assay: Anti-viral activity against SARS-CoV-2 in human bronchial epithelial cell (HBEC, EpiAirway) air-liquid-interface cultures, viral titer by TCID50; assay type: cell-based
# [2] = test system: COVID-19 infection (SARS-CoV-2); assay: Pilot / compassionate use study of opaganib in patients hospitalized with COVID-19 pneumonia; assay type: in vivo, human
# Experimental: Patients entered a screening period of up to 1 week. Eligible patients entered the treatment period for up to 2 weeks. All participants were followed for 2 weeks after their last dose of study drug, at the end of the 2 week treatment period, or once they had 2 consecutive daily negative viral swabs for the COVID-19 virus or at after premature drug discontinuation prior to Day 14. The maximum duration of study participation was 35 days […].
# Each dose is administered with food or 15-30 minutes after tube-feeding, where appropriate. […] These patients had moderate to severe COVID-19-related pneumonia with hypoxia on supplemental oxygen.
# Five patients were included in the analysis, and for comparison purposes, we used a control group with same-sex, same-severity patients (baseline characteristics). Univariate comparisons between the groups were performed with chi-square test for categorical variables and t-test or MannWhitney U-test for continuous variables, as appropriate. Time variables were compared with Cox proportional hazard regression, adjusted for age and background illnesses. CRP and lymphocyte changes were compared utilizing a repeated measures general linear model with a Bonferroni correction for multiple comparison.
# [3] = test system: COVID-19 pneumonia (SARS-CoV-2); assay: Randomized, double-blind, placebo-controlled Phase 2a study of opaganib in COVID-19 pneumonia; assay type: in vivo, human
# From the text: This was a phase 2a, proof of concept, multi-center randomized double-blind, parallel arm, placebo-controlled study. After informed consent was obtained, patients entered a screening phase for no more than 3 days, to determine eligibility. […] Treatment assignments remained blinded to the patient, investigator and hospital staff, as well as the sponsor. As there was no consensus for a definitive treatment specifically targeting the SARS-CoV-2 virus causing COVID-19 (Wilson, 2020), standard of care referred to regional, institutional or physician directed therapies, that were implemented during the COVID-19 pandemic.
# Study drug was to be administered every day for 14 days (Day 1 to Day 14), unless the patient had been discharged from the hospital without requiring supplemental oxygen, in which case study drug would only be administered to Day 10.
# Two patients were randomized in each group but not treated. […] Two patients in the opaganib arm experienced adverse events such that study drug was terminated, while one placebo patient was terminated due to an adverse event.
# The primary efficacy endpoint calculated for each patient the area under the curve of the supplemental oxygen requirement through day 14, using the trapezoidal rule after subtracting the baseline oxygen requirement at each day. Days where no supplementary oxygen was needed, were recorded as 0. If several values of oxygen requirement (L/min) are recorded in a certain day, for the primary analysis the highest of these values were taken. In the primary analysis, for patients who die before Day 14, or require intubation and mechanical ventilation, missing daily values were assigned the maximal supplemental oxygen flow requirement of 8 L/min. For patients discharged from hospital on supplemental oxygen prior to Day 14, if no values were collected by the site after discharge, the oxygen requirement (L/min) on the day of discharge were to be assigned thereafter for each day to Day 14.
# Supplemental oxygen requirement up to Day 14 was collected even if a patient discontinued treatment prior to Day 14 but continued in the study to Day 14. Further, it was assumed that loss to follow up such that vital status up to Day 14 were missing is unlikely. Therefore, the primary analysis assumed that in case that all supplemental oxygen values are missing after treatment discontinuation, the last value is carried forward—until Day 14, or death, if occurred before. A sensitivity analysis to the above missing data handling approach was performed using an AUC summary statistics approach, in which groups AUC is calculated from the estimated parameters of a Repeated-Measures model.
# Within the mITT cohort, two subjects withdrew their consent due to grade 1 gastrointestinal AEs.
# [4] = Physical description of opaganib drug substance (solubility, hygroscopicity); assay type: physicochemical
# [5] = test system: human bronchial epithelial cells (HBEC); conditions: highest concentration tested, 11.25 μg/ml
# ARDS induced thrombosis = assay: Rat venous stasis (Wessler) model after LPS-induced lung injury (ARDS induced thrombosis); assay type: in vivo, Sprague-Dawley rats; conditions: 250 mg/kg oral gavage 3, 24, 48, 72 h post LPS instillation; rat venous stasis 30 min
# From the text: This study assessed the efficacy of ABC294640 to reduce the incidence of adverse thromboembolic events in situ in acute respiratory distress syndrome (ARDS) conditions using a rat venous stasis model. This assay is designed to measure thrombotic risks following LPS-induced lung injury. LPS-induced lung injury is one of the most commonly used rodent models for ARDS and was described to mimic the neutrophilic inflammatory response observed in ARDS patients. The mechanism of LPS-induced ARDS is based on damage to endothelial cells and a systemic inflammatory response. […]
# Sprague-Dawley rats (male) weighing between 275 and 400 g were used for this study. […] The body weight was recorded before the instillation and 24, 48 and 72 hours post-instillation.
# In this study, ARDS was induced by intratracheal instillation of LPS. […] The segment was then excised and its content scored. […]
# • 1. Prior LPS or saline instillation, the functional respiratory parameters of all rat was assessed by whole-body plethysmography and SpO2 was evaluated on conscious rat with a collar probe pulse oximeter. […] The respiratory rate, the Penh and the inspiratory/expiratory time measurements was analyzed. • 2. […]
# • 5. Rats were evaluated periodically to ensure animal well-being (general behavior and daily body weight). • 6. […] SpO2 and whole-body plethysmography were also evaluated 24, 48 and 72 hours post-instillation. • 8. […]
# [6] = of 6 moderate-to-severe patients treated, opaganib plus standard-of-care
compound,measurement,setting,value
"Cl.O=C(NCc1ccncc1)C12CC3CC(C1)CC(c1ccc(Cl)cc1)(C3)C2 [opaganib, 3-(4-chlorophenyl)-adamantane-1-carboxylic acid (pyridin-4-ylmethyl) amide, hydrochloride salt]",concentration at which complete inhibition of infectious virus production starts,"[1]; SARS-CoV-2-infected HBEC, 3 days incubation",1 µg/mL
same,infectious virus production,"[1]; SARS-CoV-2-infected HBEC, 3 days incubation, 0.05 to 11.25 μg/ml",dose-dependent reduction
same,inhibition at 0.05 µg/mL,"[1]; Severe acute respiratory syndrome coronavirus 2, Epithelial cell, read-out: inhibition of infectious virus production",> 90%
same,"HR for time to weaning from HFNC, cases vs. controls","[2]; Cox regression, 95% CI: 0.07-1.7, p=0.2",0.3
same,"HR for time to ambient air, cases vs. controls","[2]; Cox regression, 95% CI: 0.15-1.5",0.4
same,Clinical Assessment,"[2]; Patient 1 (14 d), started as severe on maximal OptiFlow Apr. 3, 2020, RA = room air","Apr. 3, 2020; RA by 16/4. As of 22/4, one negative"
same,"Lymphocytes, most recent","[2]; Patient 1 (14 d on opaganib), baseline 1.6, Apr. 17, 2020","2.8 (Apr. 17, 2020) 10^3/mm^3"
same,"CRP, most recent","[2]; Patient 1 (14 d on opaganib), baseline 15.1, Apr. 17, 2020","1 (Apr. 17, 2020) mg/L"
same,Clinical Assessment,"[2]; Patient 2 (14 d), started as severe+, planning for intubation Apr. 7, 2020, RA = room air, D/C = discharged","Apr. 7, 2020; RA by Apr. 20, 2020, D/C on Apr. 22, 2020"
same,"Lymphocytes, most recent","[2]; Patient 2 (14 d on opaganib), baseline 1.1, Apr. 17, 2020","2.1 (Apr. 17, 2020) 10^3/mm^3"
same,"CRP, most recent","[2]; Patient 2 (14 d on opaganib), baseline 14.2, Apr. 17, 2020","4.8 (Apr. 17, 2020) mg/L"
same,Clinical Assessment,"[2]; Patient 3 (7 d), moderate-severe, on OptiFlow Apr. 13, 2020, D/C = discharged","Apr. 7, 200, D/C on Apr. 19, 2020"
same,"Lymphocytes, most recent","[2]; Patient 3 (7 d on opaganib), baseline 0.9, Apr. 17, 2020","1.2 (Apr. 17, 2020) 10^3/mm^3"
same,"CRP, most recent","[2]; Patient 3 (7 d on opaganib), baseline 10.7, Apr. 17, 2020","1.7 (Apr. 17, 2020) mg/L"
same,Clinical Assessment,"[2]; Patient 4 (11 d), started severe+ 70% OptiFlow on Apr. 13, 2020, RA = room air","RA on Apr. 22, 2020"
same,"Lymphocytes, most recent","[2]; Patient 4 (11 d on opaganib), baseline 1.2, Apr. 22, 2020","1 (Apr. 22, 2020) 10^3/mm^3"
same,"CRP, most recent","[2]; Patient 4 (11 d on opaganib), baseline 24.8, Apr. 22, 2020","17.4 (Apr. 22, 2020) mg/L"
same,Clinical Assessment,"[2]; Patient 5 (2 d), started moderate on Apr. 13, 2020, nasal cannula, D/C = discharged, RA = room air","opaganib; D/C on Apr. 14, 2020 on RA"
same,"Lymphocytes, most recent","[2]; Patient 6 (5 d on opaganib), baseline 1.35, Apr. 24, 2020","1.96 (Apr. 24, 2020) 10^3/mm^3"
same,"CRP, most recent","[2]; Patient 6 (5 d on opaganib), baseline 12.2, Apr. 24, 2020","6.8 (Apr. 24, 2020) mg/L"
same,adverse event leading to discontinuation,"[2]; Patient 7, also on HCQ and azithromycin, may or may not be related to opaganib, all 3 meds stopped","Diarrhea the next day, all 3 meds were stopped, followed by worsening SOB, on 75% OptiFlow."
same,clinical improvement,[2]; all 6 moderate to-severe patients (patient #7 excepted),improved significantly
same,C-Reactive Protein (CRP) change,[2]; all six patients,reduction in C-Reactive Protein (CRP)
same,time to ambient air,"[2]; cases, controls 14.5 days",13 days
same,median time to weaning from high-flow nasal cannula (HFNC),"[2]; cases, controls 15 days, p=0.2",10 days
same,cases requiring mechanical ventilation,[2]; compared with 33% of controls,none of the cases required mechanical ventilation
same,increase in lymphocyte count vs matched control group,"[2]; five patients analysed vs same-sex, same-severity controls",significantly faster increase in lymphocyte count
same,number of patients back to breathing room air,[2]; [6],5 patients
same,number of patients discharged from hospital,[2]; [6],3 patients
same,safety and tolerability,[2]; small cohort of severe COVID-19 patients,safe and well tolerated
same,proportion of patients reaching room air and no longer requiring oxygen support by Day 14,"[3]; opaganib 500 mg Q12 h + standard of care, control arm 22.2%",52.6%
same,reduction from baseline of the medial total oxygen requirement (AUC) over 14 days,"[3]; opaganib 500 mg Q12 h + standard of care, control arm 46.7%",68.0%
same,proportion of patients discharged by Day 14,"[3]; opaganib 500 mg Q12 h + standard of care, control arm 55.6%",73.7%
same,proportion of patients with 50% reduction in supplemental oxygen by day 14,"[3]; opaganib 500 mg Q12 h + standard of care, control arm 66.7%",89.5%
same,patients with adverse events such that study drug was terminated,"[3]; opaganib arm, one in placebo arm",Two
same,patients with serious adverse events (SAEs) vs placebo arm,[3]; opaganib treatment arm compared with placebo arm,fewer patients suffered from serious adverse events
same,safety (top-line),[3]; vs placebo arm,"safe, with no material safety differences"
same,solubility in water and ethyl acetate,[4],practically insoluble
same,hygroscopicity,[4]; solid,non-hygroscopic
same,cell viability,[5],remained viable
"O=C(NCc1ccncc1)C12CC3CC(C1)CC(c1ccc(Cl)cc1)(C3)C2 [ABC294640, 3-(4-chlorophenyl)-adamantane-1-carboxylic acid (pyridin-4-ylmethyl)amide]","thrombosis (blood clot length, weight and total thrombus score)",ARDS induced thrombosis,reduction of thrombosis
